In ChEMBL document CHEMBL5512607, “Journey of Von Hippel-Lindau (VHL) E3 ligase in PROTACs design: From VHL ligands to VHL-based degraders” (Eur J Med Chem, 2024):
Each block holds one compound with its values, some of them ahead of it.

Key:
[1] = biological target: T1, von Hippel-Lindau disease tumor suppressor (Homo sapiens, UniProt P40337); assay: Binding affinity to VHL (unknown origin) assessed as dissociation constant by fluorescence polarization assay
[2] = biological target: T1, von Hippel-Lindau disease tumor suppressor; assay: Inhibition of NanoLuc-fused VHL (unknown origin) transfected in live HEK293 cells using NanoGlo as substrate incubated for 1 hrs by tracer based NanoBRET assay; type: cell-based
[3] = biological target: T1, von Hippel-Lindau disease tumor suppressor; assay: Binding affinity to NanoLuc-fused VHL (unknown origin) transfected in live HEK293 cells using NanoGlo as substrate assessed as dissociation constant incubated for 1 hrs by tracer based NanoBRET assay; type: cell-based
[4] = biological target: T2, von Hippel-Lindau disease tumor suppressor/Estrogen receptor (Homo sapiens, UniProt P03372+P40337); assay: PROTAC activity at VHL E3 ligase/ERalpha in human T47D cells assessed as maximal degradation of ERalpha protein level at 10.3 nM by Western blot analysis relative to control; type: cell-based
[5] = biological target: T2, von Hippel-Lindau disease tumor suppressor/Estrogen receptor; assay: PROTAC activity at VHL E3 ligase/ERalpha in human T47D cells assessed as maximal degradation of ERalpha protein level at 7.7 nM by Western blot analysis relative to control; type: cell-based
[6] = biological target: T3, Von Hippel-Lindau disease tumor suppressor/Elongin B/Elongin C (Homo sapiens, UniProt P40337); assay: Inhibition of VHL (unknown origin) (1 to 213 residues)/ElonginC/ElonginB expressed in Escherichia coli BL21 (DE3) using (FAM)-labeled HIF-1alpha peptide as substrate incubated for 2 hrs by fluorescence polarization assay
[7] = system: von Hippel-Lindau disease tumor suppressor/Epidermal growth factor receptor (Homo sapiens), P00533+P40337 [L858R,T790M]; assay: PROTAC activity at VHL/EGFR L858R/T790M double mutant in human NCI-H1975 cells assessed as maximal degradation of EGFR incubated for 24 hrs by immunoblotting analysis relative to control; type: cell-based
[8] = biological target: T1, von Hippel-Lindau disease tumor suppressor; assay: Inhibition of VHL (unknown origin)
[9] = biological target: T3, Von Hippel-Lindau disease tumor suppressor/Elongin B/Elongin C; assay: Inhibition of VHL/Elongin B/Elogin C (unknown origin) using FAM-DEALA-Hyp-YIPD as substrate by fluorescence polarization assay; type: protein-complex assay
[10] = system: von Hippel-Lindau disease tumor suppressor/Mitogen-activated protein kinase 14; assay: PROTAC activity at VHL/N-terminal His-tagged human p38alpha expressed in […] assessed as maximal degradation relative to control
[11] = PROTAC activity at VHL/N-terminal His-tagged human p38alpha expressed in […] assessed as p38alpha degradation
[12] = biological target: von Hippel-Lindau disease tumor suppressor/Bromodomain-containing protein 4 (Homo sapiens, UniProt O60885+P40337); assay: PROTAC activity at human VHL/BRD4 in human HeLa cells assessed as degradation of BRD4 incubated for 24 hrs by Western blot analysis; type: cell-based
Chain of von Hippel-Lindau disease tumor suppressor/Bromodomain-containing protein 4 (P40337 whole entry, looked up, other chains not shown): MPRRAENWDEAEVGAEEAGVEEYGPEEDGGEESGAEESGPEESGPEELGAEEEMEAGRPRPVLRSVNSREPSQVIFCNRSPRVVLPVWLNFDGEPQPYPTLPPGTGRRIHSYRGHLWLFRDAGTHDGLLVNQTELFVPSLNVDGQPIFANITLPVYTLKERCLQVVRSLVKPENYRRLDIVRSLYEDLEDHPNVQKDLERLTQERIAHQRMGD

T1 sequence (P40337 whole entry, the tested form may be a part): as the sequence (P40337 whole entry, looked up, other chains not shown) above
T2 sequence (P03372 whole entry, looked up): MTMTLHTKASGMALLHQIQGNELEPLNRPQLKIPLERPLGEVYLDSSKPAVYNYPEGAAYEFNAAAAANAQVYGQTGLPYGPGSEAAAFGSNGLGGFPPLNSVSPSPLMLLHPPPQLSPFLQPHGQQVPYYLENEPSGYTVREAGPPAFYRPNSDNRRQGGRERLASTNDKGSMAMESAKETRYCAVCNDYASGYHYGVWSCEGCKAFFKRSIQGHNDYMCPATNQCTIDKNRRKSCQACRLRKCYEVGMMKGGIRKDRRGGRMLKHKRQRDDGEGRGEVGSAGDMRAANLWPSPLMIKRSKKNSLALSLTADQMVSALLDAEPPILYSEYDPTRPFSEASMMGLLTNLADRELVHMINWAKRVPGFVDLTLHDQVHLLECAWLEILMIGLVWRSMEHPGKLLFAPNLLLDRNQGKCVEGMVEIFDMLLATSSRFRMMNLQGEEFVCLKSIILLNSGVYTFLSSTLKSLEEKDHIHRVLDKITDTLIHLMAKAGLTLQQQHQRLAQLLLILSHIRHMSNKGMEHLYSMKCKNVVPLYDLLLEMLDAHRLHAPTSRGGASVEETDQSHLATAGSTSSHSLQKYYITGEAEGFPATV
T2 sequence (P40337 whole entry, looked up): as the sequence (P40337 whole entry, looked up, other chains not shown) above
T3 sequence (P40337 whole entry, looked up, the tested form may be a part): as the sequence (P40337 whole entry, looked up, other chains not shown) above
Chain of von Hippel-Lindau disease tumor suppressor/Epidermal growth factor receptor (Homo sapiens), P00533+P40337 [L858R,T790M] (P00533 whole entry T790M/L858R): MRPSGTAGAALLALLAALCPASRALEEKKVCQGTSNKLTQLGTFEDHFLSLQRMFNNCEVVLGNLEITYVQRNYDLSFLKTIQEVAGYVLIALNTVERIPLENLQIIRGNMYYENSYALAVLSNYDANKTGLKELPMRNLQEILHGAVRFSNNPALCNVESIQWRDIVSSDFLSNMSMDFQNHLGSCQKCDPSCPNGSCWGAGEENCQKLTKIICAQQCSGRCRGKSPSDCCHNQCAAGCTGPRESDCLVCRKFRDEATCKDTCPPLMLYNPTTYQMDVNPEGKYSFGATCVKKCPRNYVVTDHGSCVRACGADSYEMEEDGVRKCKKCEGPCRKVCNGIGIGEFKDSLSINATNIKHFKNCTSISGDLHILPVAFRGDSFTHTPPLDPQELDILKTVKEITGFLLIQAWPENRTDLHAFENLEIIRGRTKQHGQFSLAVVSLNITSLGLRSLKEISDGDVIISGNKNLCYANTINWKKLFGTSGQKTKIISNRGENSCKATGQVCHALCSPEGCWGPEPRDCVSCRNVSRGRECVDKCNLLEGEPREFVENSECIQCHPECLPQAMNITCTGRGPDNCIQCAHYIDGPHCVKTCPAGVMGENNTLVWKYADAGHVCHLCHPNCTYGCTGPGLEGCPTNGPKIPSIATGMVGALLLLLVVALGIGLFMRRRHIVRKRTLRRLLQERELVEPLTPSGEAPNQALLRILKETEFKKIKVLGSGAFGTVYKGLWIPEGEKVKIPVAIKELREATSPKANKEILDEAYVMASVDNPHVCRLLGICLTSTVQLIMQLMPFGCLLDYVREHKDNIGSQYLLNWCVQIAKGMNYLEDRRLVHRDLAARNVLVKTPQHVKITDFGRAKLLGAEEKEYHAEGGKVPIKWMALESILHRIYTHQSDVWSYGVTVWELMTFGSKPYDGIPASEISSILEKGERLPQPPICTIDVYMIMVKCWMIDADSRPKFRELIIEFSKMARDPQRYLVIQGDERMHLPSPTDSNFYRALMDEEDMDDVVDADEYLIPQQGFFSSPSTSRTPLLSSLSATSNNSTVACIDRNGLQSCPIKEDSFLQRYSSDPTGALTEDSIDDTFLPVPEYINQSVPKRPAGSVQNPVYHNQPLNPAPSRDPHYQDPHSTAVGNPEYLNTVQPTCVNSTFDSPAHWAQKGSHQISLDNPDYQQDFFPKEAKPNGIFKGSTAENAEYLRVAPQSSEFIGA
Chain of von Hippel-Lindau disease tumor suppressor/Epidermal growth factor receptor (Homo sapiens), P00533+P40337 [L858R,T790M] (P40337 whole entry partner): as the sequence (P40337 whole entry, looked up, other chains not shown) above

Structure (SMILES): CC(=O)N[C@H](C(=O)N1C[C@H](O)C[C@H]1C(=O)N[C@@H](C)c1ccc(-c2scnc2C)cc1)C(C)(C)C
- IC50 [2]: 0.13 µM
- Kd [3]: 0.063 µM

Structure (SMILES): Cc1ncsc1-c1ccc([C@H](C)NC(=O)[C@@H]2C[C@@H](O)CN2C(=O)[C@@H](NC(=O)CCCCOc2ccc(CCNC(=O)c3ccc(C(=O)c4c(-c5ccc(O)cc5)sc5cc(O)ccc45)cc3)cc2)C(C)(C)C)cc1
- Emax [4]: 98%
- Emax [5]: 98%

Structure (SMILES): COc1cccc(/C=C2\Oc3cc(OCC(=O)N4CC(O)C[C@H]4C(=O)O)ccc3C2=O)c1 (stereo partly drawn)
- IC50 [6]: 2.29 µM

Structure (SMILES): Cc1ncsc1-c1ccc(CNC(=O)[C@H]2C[C@H](O)CN2C(=O)[C@H](NC(=O)CCCCCOCCCCOCCCCOc2cc3ncnc(Nc4ccc(F)c(Cl)c4)c3cc2NC(=O)/C=C/CN(C)C)C(C)(C)C)cc1
- Emax [7]: 79.1%

Structure (SMILES): Cc1cc(CC(=O)N2C[C@H](O)C[C@H]2C(=O)NCc2cccc(Cl)c2)on1
- IC50 [8]: 0.117 µM

Structure (SMILES): Cc1cc(CC(=O)N2C[C@H](O)C[C@H]2C(=O)NCc2ccc(-c3ocnc3C)cc2)on1
- IC50 [9]: 12.7 µM

Structure (SMILES): COc1cc2c(Oc3ccc(NC(=O)C4(C(=O)Nc5ccc(F)cc5)CC4)cc3F)ccnc2cc1OCCOCCOCCOc1cc(-c2scnc2C)ccc1CNC(=O)[C@@H]1C[C@@H](O)CC1C(=O)[C@H](C(C)C)C1Cc2ccccc2C1=O (stereo partly drawn)
- Emax [10]: 99.4%
- DC50 [11]: 0.0662 µM

Structure (SMILES): CC(=O)N[C@H](C(=O)N1C[C@H](O)[C@H](F)[C@H]1C(=O)Nc1ccc(-c2scnc2C)cc1)C(C)(C)C
- DC50 [12]: 0.001 µM

The next lines start with the values.

- Kd [1]: 0.037 µM
Structure (SMILES): Cc1cc(-c2scnc2C)ccc1[C@H](C)NC(=O)[C@@H]1C[C@@H](O)CN1C(=O)[C@H](NC(=O)C1(F)CC1)C(C)(C)C

- Kd [1]: 0.528 µM
Structure (SMILES): Cc1cc(-c2scnc2C)c(C)cc1CNC(=O)[C@@H]1C[C@@H](O)CN1C(=O)[C@H](NC(=O)C1(C#N)CC1)C(C)(C)C

- Kd [1]: 0.086 µM
Structure (SMILES): Cc1cc(-c2scnc2C)ccc1[C@H](C)NC(=O)[C@@H]1C[C@@H](O)CN1C(=O)[C@H](NC(=O)C1(C#N)CC1)C(C)(C)C

- Kd [1]: 1.04 µM
Structure (SMILES): Cc1ncsc1-c1cc2c(cc1F)[C@@H](NC(=O)[C@@H]1C[C@@H](O)CN1C(=O)[C@H](NC(=O)C1(F)CC1)C(C)(C)C)CCCC2

- Kd [1]: 0.134 µM
Structure (SMILES): COc1cc(-c2scnc2C)c(F)cc1CNC(=O)[C@@H]1C[C@@H](O)CN1C(=O)[C@H](NC(=O)C1(F)CC1)C(C)(C)C

- IC50 [2]: 26 µM
Structure (SMILES): CC(=O)N[C@H](C(=O)N1C[C@H](O)C[C@H]1C(=O)N[C@H](C)c1ccc(-c2scnc2C)cc1)C(C)(C)C

- Kd [1]: 0.097 µM
Structure (SMILES): Cc1ncsc1-c1ccc(CNC(=O)[C@@H]2C[C@@H](O)CN2C(=O)[C@H](NC(=O)C2(C#N)CC2)C(C)(C)C)cc1F
